Test results: patent US6399661B1, “Oral creatine supplement and method for making same” (priority 2000, dated 2002)

Columns and labels:
[1] = conversion of creatine to creatinine in solutions of different pH; type: physicochemical
Text: FIG. 1 is a graph showing rate of creatinine formation from creatine as a function of pH;
FIG. 2 is a graph showing rate of creatine loss as a function of time upon dissolution in different pH buffers; and
FIG. 3 is a chart showing time in minutes for conversion of 1 g creatine to creatinine in 2 liter at given pH.
The rate of creatinine formation from creatine as a function of pH is shown in FIG. 1 in accordance with research conducted by the inventor. In FIG. 2, the rate of creatine loss as a function of time upon dissolution in different pH buffers is shown.

[2] = acidic solutions having a pH range of from 3-6; cited from earlier work
human body = details: 5 grams of creatine, 4-6 times a day, for two or more days, oral; cited from earlier work

Question: With CN(CC(=O)O)C(=N)N [creatine] as the compound, how does the “creatine remaining following dissolution in a pH buffer” value ([1]; different pH buffers, as a function of time (FIG. 2)) read?
Answer: The value was “the higher the pH, the higher the creatine remaining”.

Question: What about the “rate of conversion of one gram of creatine to creatinine” value ([1]; various pH solutions, 1 g creatine in 2 liter (FIG. 3)) of the same compound?
Answer: Its value is “substantially slowed by increasing the pH of the solution”.

Question: And the “rate of conversion of creatine to creatinine” value [2]?
Answer: Its value is “almost instantaneous”.

Question: What about the total creatine concentration (human body) of the same compound?
Answer: Its total creatine concentration is “significant increase”.
